{"source": "patent US20030022812A1", "about": "“Treating pain by targeting hyperpolarization-activated, cyclic nucleotide-gated channels” (priority 2001, published 2003)", "key": {"Ih": {"tested_on": "Ih", "settings": "applied intracellularly at 5 or 10 mM (Perkins et al. 1995); cited from earlier work"}, "[1]": {"tested_on": "preclinical models of neuropathic pain", "settings": "Chaplan 1999; cited from earlier work"}, "CFA-injected rats": {"tested_on": "CFA-injected rats", "experiment": "Tactile allodynia (von Frey) in complete Freund's adjuvant (CFA) paw model of inflammatory pain", "format": "in vivo, rat", "settings": "i.p., ZD7288 10 mg/kg, ibuprofen 30 mg/kg, morphine 3 mg/kg, gabapentin 100 mg/kg"}, "[2]": {"tested_on": "Ih in rabbit sinoatrial node", "settings": "rabbit sinoatrial node (Rocchetti et al. 1999); read-out: ED50 of Ih block previously reported; cited from earlier work"}, "[3]": {"tested_on": "native Ih in normal rat L4 dorsal root ganglion neurons", "experiment": "Whole cell patch clamp of native Ih in dissociated normal rat L4 DRG neurons, lidocaine block", "format": "cell-based", "description": "Lidocaine was tested for its effect on Ih expressed in dissociated L4 dorsal root ganglion neurons from uninjured rats to determine whether this well known Na channel blocker could have other mechanisms of action.\nDRG were extirpated, dissociated and cultured 3-4 days on poly-D-lysine coated coverslips as described in Example 10. Ih was measured using the whole cell configuration of the patch clamp technique according to the methods described in Example 10 with the exception that the pipette solution was the solution used in Example 3. Neurons were challenged with a family of hyperpolarizing voltage pulses (−60 mV to −150 mV in increments of 10 mV) from a holding potential of −50 mV. Ih was determined at the end of 600 msec duration test pulses. Lidocaine was bath-applied at neutral pH and the percent inhibition of control Ih was determined after lidocaine achieved steady state block. Plotted is the steady state current observed at −134 mV as a percent of control after incubation of lidocaine at the indicated concentrations. […] Lidocaine block was reversible. Data were obtained from 3 cells having control Ih densities of −1.5, −2.0 and −2.2 pA/pF."}, "[4]": {"tested_on": "rat mild thermal injury model", "experiment": "Spontaneous pain behaviors in rat mild thermal injury (first-degree burn) model", "format": "in vivo", "settings": "30 and 60 min after i.p. administration"}}, "data": [{"smiles": "CC[N+](CC)(CC)CC(=O)Nc1c(C)cccc1C", "note": "[QX-314]", "values": [{"measurement": "block of Ih", "setting": "Ih", "result": "blocks Ih"}]}, {"smiles": "CCCCN1CCCCC1C(=O)Nc1c(C)cccc1C", "note": "(stereo not shown) [bupivacaine]", "values": [{"measurement": "anti-hyperalgesic activity", "setting": "[1]", "result": "does not possess any anti-hyperalgesic activity"}]}, {"smiles": "NCC1(CC(=O)O)CCCCC1", "note": "[gabapentin]", "values": [{"measurement": "suppression of CFA-induced tactile allodynia", "setting": "CFA-injected rats", "result": "not"}]}, {"smiles": "CC(C)Cc1ccc(C(C)C(=O)O)cc1", "note": "(stereo not shown) [ibuprofen]", "values": [{"measurement": "suppression of CFA-induced tactile allodynia", "setting": "CFA-injected rats", "result": "suppressed"}, {"measurement": "suppression of CFA-induced tactile allodynia", "setting": "CFA-injected rats; listed as Ibuprofen", "result": "some efficacy"}]}, {"smiles": "CCN(CC)CC(=O)Nc1c(C)cccc1C", "note": "[lidocaine]", "values": [{"measurement": "EC50", "setting": "[2]", "result": 38.2, "unit": "µM"}, {"measurement": "reversibility of Ih block", "setting": "[3]", "result": "reversible"}, {"measurement": "EC50", "setting": "[3]; bath-applied at neutral pH, current at −134 mV, 3 cells, read-out: ED50 of concentration-dependent block of Ih", "result": 23, "unit": "µM"}]}, {"smiles": "CN1CC[C@]23c4c5ccc(O)c4O[C@H]2[C@@H](O)C=C[C@H]3[C@H]1C5", "note": "[morphine]", "values": [{"measurement": "suppression of spontaneous pain behaviors", "setting": "[4]", "result": "near complete suppression"}, {"measurement": "suppression of CFA-induced tactile allodynia", "setting": "CFA-injected rats", "result": "suppressed"}]}]}
